Source: ChEMBL document CHEMBL5634109, “Synthesis and mechanism of action of new purine derivatives against triple negative breast cancer” (Eur J Med Chem, 2023)
Calls of active or inactive are those of the source. The calls are words filed in the database; no cut-off is given here.

How the values were obtained:
[1] = test system: A549; test: Antiproliferative activity against human A549 cells assessed as reduction in cell viability measured for 48 hrs by MTT assay; format: functional, cell-based; conditions: A549, 48 h
[2] = test system: NCI-H1299; test: Antiproliferative activity against human NCI-H1299 cells assessed as reduction in cell viability measured for 48 hrs by MTT assay; format: functional, cell-based; conditions: NCI-H1299, 48 h
[3] = test system: MCF7; test: Antiproliferative activity against human MCF7 cells assessed as reduction in cell viability measured for 48 hrs by MTT assay; format: functional, cell-based; conditions: MCF7, 48 h
[4] = test system: K562; test: Antiproliferative activity against human K562 cells assessed as reduction in cell viability measured for 48 hrs by MTT assay; format: functional, cell-based; conditions: K562, 48 h
[5] = test system: HepG2; test: Antiproliferative activity against human HepG2 cells assessed as reduction in cell viability measured for 48 hrs by MTT assay; format: functional, cell-based; conditions: HepG2, 48 h
[6] = test system: HCT-116; test: Antiproliferative activity against human HCT-116 cells assessed as reduction in cell viability measured for 48 hrs by MTT assay; format: functional, cell-based; conditions: HCT-116, 48 h
[7] = test system: MGC-803; test: Antiproliferative activity against human MGC-803 cells assessed as reduction in cell viability measured for 48 hrs by MTT assay; format: functional, cell-based; conditions: MGC-803, 48 h
[8] = test system: HT-29; test: Antiproliferative activity against human HT-29 cells assessed as reduction in cell viability measured for 48 hrs by MTT assay; format: functional, cell-based; conditions: HT-29, 48 h
[9] = biological target: Dual specificity tyrosine-phosphorylation-regulated kinase 1A (Homo sapiens, UniProt Q13627); test: Inhibition of DYRK1A (unknown origin)
[10] = biological target: Casein kinase I isoform epsilon (Homo sapiens, UniProt P49674); test: Inhibition of CK1epsilon (unknown origin)
Sequence of Casein kinase I isoform epsilon (P49674 whole entry, canonical isoform): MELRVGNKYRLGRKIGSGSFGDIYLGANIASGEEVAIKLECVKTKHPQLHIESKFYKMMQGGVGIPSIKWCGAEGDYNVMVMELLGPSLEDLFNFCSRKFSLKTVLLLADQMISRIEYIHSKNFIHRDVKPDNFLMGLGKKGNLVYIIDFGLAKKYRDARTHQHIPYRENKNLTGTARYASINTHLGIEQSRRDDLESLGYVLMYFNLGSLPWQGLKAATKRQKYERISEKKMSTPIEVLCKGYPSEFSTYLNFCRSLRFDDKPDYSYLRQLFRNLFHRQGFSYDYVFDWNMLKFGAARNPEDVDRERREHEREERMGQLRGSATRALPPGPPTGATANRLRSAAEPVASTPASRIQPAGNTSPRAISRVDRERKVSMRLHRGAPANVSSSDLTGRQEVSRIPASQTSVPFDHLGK

[11] = biological target: Dual specificity protein kinase CLK1 (Homo sapiens, UniProt P49759); test: Inhibition of CLK1 (unknown origin)
Sequence of Dual specificity protein kinase CLK1 (P49759 whole entry): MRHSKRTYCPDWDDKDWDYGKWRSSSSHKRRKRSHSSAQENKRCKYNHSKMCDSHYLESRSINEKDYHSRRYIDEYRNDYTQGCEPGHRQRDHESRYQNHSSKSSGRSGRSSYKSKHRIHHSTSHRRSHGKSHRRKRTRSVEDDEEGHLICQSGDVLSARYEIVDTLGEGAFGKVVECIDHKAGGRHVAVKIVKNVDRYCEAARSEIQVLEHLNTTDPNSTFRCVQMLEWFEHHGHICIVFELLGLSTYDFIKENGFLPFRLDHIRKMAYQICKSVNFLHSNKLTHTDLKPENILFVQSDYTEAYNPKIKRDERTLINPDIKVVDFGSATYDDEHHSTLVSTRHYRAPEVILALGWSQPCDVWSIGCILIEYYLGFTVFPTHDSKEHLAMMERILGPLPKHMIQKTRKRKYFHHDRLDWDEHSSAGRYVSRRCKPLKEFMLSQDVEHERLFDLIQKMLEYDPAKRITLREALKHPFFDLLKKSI

[12] = biological target: T1, Dual specificity protein kinase CLK4 (Homo sapiens, UniProt Q9HAZ1); test: Inhibition of CLK4 (unknown origin)
Target sequence in this assay (Q9HAZ1 whole entry): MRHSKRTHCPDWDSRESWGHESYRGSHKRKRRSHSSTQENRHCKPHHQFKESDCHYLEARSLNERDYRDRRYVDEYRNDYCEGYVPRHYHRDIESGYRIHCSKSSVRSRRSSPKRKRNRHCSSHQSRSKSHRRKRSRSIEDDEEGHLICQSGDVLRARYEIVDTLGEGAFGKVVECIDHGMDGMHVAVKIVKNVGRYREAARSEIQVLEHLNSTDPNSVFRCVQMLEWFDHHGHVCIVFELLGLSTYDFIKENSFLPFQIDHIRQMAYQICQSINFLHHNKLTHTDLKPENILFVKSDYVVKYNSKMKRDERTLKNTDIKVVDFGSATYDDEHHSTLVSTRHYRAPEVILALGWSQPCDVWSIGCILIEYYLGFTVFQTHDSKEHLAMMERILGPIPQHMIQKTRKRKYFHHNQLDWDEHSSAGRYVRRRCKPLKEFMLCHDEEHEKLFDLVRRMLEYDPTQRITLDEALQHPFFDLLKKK

[13] = test system: PC-3; test: Antiproliferative activity against human PC-3 cells assessed as reduction in cell viability measured for 48 hrs by MTT assay; format: functional, cell-based; conditions: PC-3, 48 h
[14] = biological target: T2, Dual specificity protein kinase CLK2 (Homo sapiens, UniProt P49760); test: Inhibition of CLK2 (unknown origin)
Target sequence in this assay (P49760 whole entry): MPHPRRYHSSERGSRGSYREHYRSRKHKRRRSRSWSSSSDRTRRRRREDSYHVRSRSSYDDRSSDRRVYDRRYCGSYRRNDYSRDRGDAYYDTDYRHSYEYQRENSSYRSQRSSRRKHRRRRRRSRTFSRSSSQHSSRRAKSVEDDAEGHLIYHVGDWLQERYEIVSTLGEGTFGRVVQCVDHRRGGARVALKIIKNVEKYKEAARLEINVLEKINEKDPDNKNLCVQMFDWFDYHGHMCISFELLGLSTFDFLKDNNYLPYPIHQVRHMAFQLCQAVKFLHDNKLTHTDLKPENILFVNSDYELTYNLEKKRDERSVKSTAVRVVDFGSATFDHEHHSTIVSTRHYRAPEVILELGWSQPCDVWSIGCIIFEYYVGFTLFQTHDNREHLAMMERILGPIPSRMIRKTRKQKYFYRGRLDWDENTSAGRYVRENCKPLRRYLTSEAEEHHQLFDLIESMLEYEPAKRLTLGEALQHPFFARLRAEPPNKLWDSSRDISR

[15] = biological target: T3, Cyclin-dependent kinase 7 (Homo sapiens, UniProt P50613); test: Inhibition of CDK7 (unknown origin)
T3 sequence (P50613 whole entry): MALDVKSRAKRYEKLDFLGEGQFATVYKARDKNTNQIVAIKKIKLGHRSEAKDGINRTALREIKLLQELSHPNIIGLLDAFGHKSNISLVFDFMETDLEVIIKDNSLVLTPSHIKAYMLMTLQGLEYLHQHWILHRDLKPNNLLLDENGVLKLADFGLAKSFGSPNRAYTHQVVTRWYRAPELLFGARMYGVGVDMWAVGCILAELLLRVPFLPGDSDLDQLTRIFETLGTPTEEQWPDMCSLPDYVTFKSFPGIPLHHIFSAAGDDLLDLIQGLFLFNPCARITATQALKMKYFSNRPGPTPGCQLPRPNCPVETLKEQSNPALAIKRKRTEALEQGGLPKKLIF

[16] = Antiproliferative activity against human HEK293 cells assessed as reduction in cell viability measured for 48 hrs by MTT assay; format: toxicity, cell-based
[17] = test system: MDA-MB-231; test: Antiproliferative activity against human MDA-MB-231 cells assessed as reduction in cell viability measured for 48 hrs by MTT assay; format: functional, cell-based; conditions: MDA-MB-231, 48 h
[18] = Antiproliferative activity against human HUVEC cells assessed as reduction in cell viability measured for 48 hrs by MTT assay; format: toxicity, cell-based
[19] = test system: MDA-MB-468; test: Antiproliferative activity against human MDA-MB-468 cells assessed as reduction in cell viability measured for 48 hrs by MTT assay; format: functional, cell-based; conditions: MDA-MB-468, 48 h
[20] = test system: Cell membrane; test: Induction of mitochondrial membrane potential loss in human MDA-MB-231 cells assessed as increase in fluorescence intensity at 40 uM incubated for 48 hrs by TMRM dye based flow cytometry analysis (reference value: 97.5%)
[21] = test system: MDA-MB-231; test: Induction of ROS generation in human MDA-MB-231 cells assessed as increase in intracellular ROS level at 40 uM incubated for 48 hrs by DCFH-DA staining based fluorescence microscopic analysis (Rvb= 24.7%); format: functional
[22] = test system: HUVEC; test: Antiangiogenesis activity in HUVEC cells at 125 nM incubated for 12 hrs by microscopic analysis; format: functional, cell-based; conditions: Homo sapiens
[23] = test system: MDA-MB-231; test: Inhibition of cell migration human MDA-MB-231 cells at 0.01 to 0.4 uM incubated for 20 hrs by DAPI staining based analysis; format: functional; conditions: dose 0.01-0.4 µM
[24] = test system: MDA-MB-231; test: Inhibition of cell migration human MDA-MB-231 cells assessed as migration distance at 25 uM incubated for 24 hrs by wound healing assay (reference value: 642.72 micrometer); format: functional
[25] = test system: MDA-MB-231; test: Inhibition of cell migration human MDA-MB-231 cells assessed as migration distance at 25 uM incubated for 48 hrs by wound healing assay (reference value: 642.72 micrometer); format: functional
[26] = biological target: Cyclin-dependent kinase 9 (Homo sapiens) (UniProt P50750); test: Inhibition of CDK9 (unknown origin) at 1 uM relative to control
Sequence of Cyclin-dependent kinase 9 (Homo sapiens) (P50750 whole entry): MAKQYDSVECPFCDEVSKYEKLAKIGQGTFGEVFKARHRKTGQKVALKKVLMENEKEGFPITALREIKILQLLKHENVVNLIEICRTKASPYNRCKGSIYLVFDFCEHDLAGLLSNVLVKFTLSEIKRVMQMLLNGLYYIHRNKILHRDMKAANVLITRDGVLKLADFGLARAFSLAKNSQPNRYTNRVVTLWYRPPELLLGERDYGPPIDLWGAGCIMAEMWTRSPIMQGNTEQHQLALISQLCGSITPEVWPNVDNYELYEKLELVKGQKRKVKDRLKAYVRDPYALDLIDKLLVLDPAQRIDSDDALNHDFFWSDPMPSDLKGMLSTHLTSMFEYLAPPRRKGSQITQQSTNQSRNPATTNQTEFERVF

[27] = biological target: T4, Cyclin-dependent kinase 5/CDK5 activator 1 (Homo sapiens) (UniProt Q00535+Q15078); test: Inhibition of CDK5/P25 (unknown origin) at 1 uM relative to control; format: protein-complex assay
T4 sequence (Q00535 whole entry): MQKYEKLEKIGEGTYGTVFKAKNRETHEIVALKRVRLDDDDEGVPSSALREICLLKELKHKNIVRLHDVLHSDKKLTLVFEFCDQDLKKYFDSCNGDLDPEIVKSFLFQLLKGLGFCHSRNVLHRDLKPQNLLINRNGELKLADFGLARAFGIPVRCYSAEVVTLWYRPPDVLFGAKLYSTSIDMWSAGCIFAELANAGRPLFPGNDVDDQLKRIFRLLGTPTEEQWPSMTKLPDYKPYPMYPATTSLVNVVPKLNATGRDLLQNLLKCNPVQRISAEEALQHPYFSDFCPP
T4 sequence (Q15078 99-307 partner limits assumed): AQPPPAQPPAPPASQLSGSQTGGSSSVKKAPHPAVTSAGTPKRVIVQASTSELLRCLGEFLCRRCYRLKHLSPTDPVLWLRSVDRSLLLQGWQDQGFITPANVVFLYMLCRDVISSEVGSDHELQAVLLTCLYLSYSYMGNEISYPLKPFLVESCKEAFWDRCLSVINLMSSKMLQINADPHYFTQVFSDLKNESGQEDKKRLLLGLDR

[28] = biological target: Cyclin-dependent kinase 9 (Homo sapiens) (UniProt P50750); test: Inhibition of CDK9 (unknown origin) at 10 uM relative to control
[29] = biological target: T3, Cyclin-dependent kinase 7; test: Inhibition of CDK7 (unknown origin) at 1 uM relative to control
[30] = biological target: T2, Dual specificity protein kinase CLK2; test: Inhibition of CLK2 (unknown origin) at 1 uM relative to control
Target sequence in this assay (P49760 whole entry, looked up): as the sequence (P49760 whole entry) above

[31] = biological target: T5, Cyclin-dependent kinase 2/cyclin E1 (Homo sapiens) (UniProt P24864+P24941); test: Inhibition of CDK2/Cyclin E (unknown origin) at 10 uM relative to control; format: protein-complex assay
[32] = biological target: T5, Cyclin-dependent kinase 2/cyclin E1 (Homo sapiens); test: Inhibition of CDK2/Cyclin E (unknown origin) at 1 uM relative to control; format: protein-complex assay
[33] = biological target: T4, Cyclin-dependent kinase 5/CDK5 activator 1 (Homo sapiens); test: Inhibition of CDK5/P25 (unknown origin) at 10 uM relative to control; format: protein-complex assay
[34] = biological target: T2, Dual specificity protein kinase CLK2; test: Inhibition of CLK2 (unknown origin) at 10 uM relative to control
Target sequence in this assay (P49760 whole entry, looked up): as the sequence (P49760 whole entry) above

[35] = biological target: T1, Dual specificity protein kinase CLK4; test: Inhibition of CLK4 (unknown origin) at 10 uM relative to control
Target sequence in this assay (Q9HAZ1 whole entry, looked up): as the sequence (Q9HAZ1 whole entry) above

[36] = biological target: T1, Dual specificity protein kinase CLK4; test: Inhibition of CLK4 (unknown origin) at 1 uM relative to control
Target sequence in this assay (Q9HAZ1 whole entry, looked up): as the sequence (Q9HAZ1 whole entry) above

[37] = biological target: T3, Cyclin-dependent kinase 7; test: Inhibition of CDK7 (unknown origin) at 10 uM relative to control

| Structure (SMILES) | IC50 [1] [µM] | IC50 [2] [µM] | IC50 [3] [µM] | IC50 [4] [µM] | IC50 [5] [µM] | IC50 [6] [µM] | IC50 [7] [µM] | IC50 [8] [µM] | IC50 [9] [µM] | IC50 [10] [µM] | IC50 [11] [µM] | IC50 [12] [µM] | IC50 [13] [µM] | IC50 [14] [µM] | IC50 [15] [µM] | further results |
| --- | --- | --- | --- | --- | --- | --- | --- | --- | --- | --- | --- | --- | --- | --- | --- | --- |
| CC(C)n1cnc2c(NCc3ccncc3)nc(N3CCC(C4CCN(CCO)CC4)CC3)nc21 | 34.7 | 38.7 | 10.1 | 31 | 58.8 | 24.4 | > 100 | 35.9 |  |  |  |  |  |  |  |  |
| OCCN1CCC(C2CCN(c3nc(NCc4ccc(Cl)c(F)c4)c4ncn(C5CCCC5)c4n3)CC2)CC1 | 3.54 | 4.77 | 2.83 | 2.63 | 1.75 | 2.95 | 19.9 | 4.21 | 0.445 | 0.193 | 0.78 | 0.126 | 7.2 | 0.058 | 2.04 |  |
| CC[C@@]1(O)C(=O)OCc2c1cc1n(c2=O)Cc2cc3ccccc3nc2-1 [CAMPTOTHECIN] | 5.5 | > 100 | 6.39 | 0.08 |  | 0.21 | > 100 | 0.19 |  |  |  |  | > 100 |  |  | IC50 at 48 h [16]: 0.81 µM; IC50 [17]: > 100 µM; IC50 at 48 h [18]: 0.04 µM; IC50 [19]: > 100 µM |
| CC(C)n1cnc2c(NCc3cccnc3Cl)nc(N3CCC(C4CCN(CCO)CC4)CC3)nc21 | > 100 | > 100 | > 100 | > 100 | > 100 | 54.5 | > 100 | > 100 |  |  |  |  |  |  |  |  |
| CC(C)n1cnc2c(NCc3cc(F)cnc3Cl)nc(N3CCC(C4CCN(CCO)CC4)CC3)nc21 | 0.45 | 2.75 | 6.03 | 0.29 | 6.91 | 0.35 | 6.78 | 2.39 |  |  |  |  |  |  |  | IC50 at 48 h [16]: 0.46 µM; IC50 [17]: 0.4 µM; IC50 at 48 h [18]: 1.55 µM; IC50 [19]: 4.07 µM |
| CC(C)n1cnc2c(NCc3ccccn3)nc(N3CCC(C4CCN(CCO)CC4)CC3)nc21 | 38.4 | 53.4 | 44.5 | 28.7 | 76.1 | 22.8 | > 100 | 53.9 | 0.208 | 0.167 | 0.173 | 0.047 |  | 0.02 | 0.043 |  |
| CC[C@H](CO)Nc1nc(NCc2ccccc2)c2ncn(C(C)C)c2n1 [SELICICLIB] | > 100 | 83 | > 100 | > 100 | > 100 | 17.3 | > 100 | > 100 |  |  |  |  | > 100 |  |  | Activity [20]: 87.5%; Activity [21]: 21.8%; Activity [22]: Active; inhibition [23]: Active; Activity [24]: 348.27 um; Activity [25]: 453.91 um |
| OCCN1CCC(C2CCN(c3nc(NCc4cc(F)cc(F)c4)c4ncn(C5CCCC5)c4n3)CC2)CC1 | 2.33 | 6.49 | 2.93 | 2.54 | 4.43 | 41.9 | 5.7 | 3.41 |  |  |  |  | 4.36 |  |  |  |
| CC(C)n1cnc2c(NCc3ccc(F)c(F)c3)nc(N3CCC(C4CCN(CCO)CC4)CC3)nc21 | 2.49 | 19.6 | 3.05 | 0.44 | 3.05 | 2.8 | 5.07 | 3.47 | 0.79 | 0.415 | 0.949 | 0.31 | 3.95 | 0.08 | 0.597 |  |
| CC(C)n1cnc2c(NCc3ccccc3)nc(N3CCC(C4CCN(CCO)CC4)CC3)nc21 |  |  |  |  | 1.82 | 2.23 |  | 3.17 | 0.877 | 0.771 | 0.412 | 0.158 |  | 0.068 | 0.143 | inhibition [26]: 8%; inhibition [27]: 4%; inhibition [28]: 40%; inhibition [29]: 88%; inhibition [30]: 99%; inhibition [31]: 49%; inhibition [32]: 2%; inhibition [33]: 42%; inhibition [34]: 99%; inhibition [35]: 97%; inhibition [36]: 92%; inhibition [37]: 96% |
